# Literature values as cited in patent US8841476B2, “Preparation of crystalline ezatiostat hydrochloride ansolvate form D” (Telik, Inc., priority 2010, dated 2014).
# Where two headings read alike, the source gives them in different places.
# Tests used:
# [1] = tested on: HL-60 promyelocytic leukemia cells; details: in vitro
# [2] = in vitro
# [3] = in vivo
# [4] = tested on: hematopoietic progenitor cells in normal human peripheral blood
# [5] = ezatiostat hydrochloride in a liposomal injectable formulation, MDS trial, Raza et al. 2009
smiles,measurement,setting,value
CCOC(=O)[C@@H](N)CCC(=O)N[C@@H](CSCc1ccccc1)C(=O)N[C@@H](C(=O)OCC)c1ccccc1 [Ezatiostat],differentiation of HL-60 promyelocytic leukemia cells,[1],induce the differentiation
same,potentiation of the activity of cytotoxic agents,[2],potentiate the activity of cytotoxic agents
same,potentiation of the activity of cytotoxic agents,[3],potentiate the activity of cytotoxic agents
same,colony formation of hematopoietic progenitor cells,[4],stimulate colony formation of all three lineages
same,white blood cell production,animals in which white blood cells were depleted by treatment with cisplatin or fluorouracil,increase white blood cell production
same,white blood cell production,normal animals,increase white blood cell production
same,hematologic improvement,[5],multi-lineage hematologic improvement
same,tolerability,[5],well tolerated
